We go through one compound from US20250100963A1, “SULFONATED AND PHOSPHORYLATED AROMATIC MOLECULES” (Xavier University of Louisiana, priority 2023, published 2025).

Common to all, as to type: biochemical
The target of experiment [1] is T1, CatG (Homo sapiens, UniProt P08311).
T1 sequence (P08311 21-244): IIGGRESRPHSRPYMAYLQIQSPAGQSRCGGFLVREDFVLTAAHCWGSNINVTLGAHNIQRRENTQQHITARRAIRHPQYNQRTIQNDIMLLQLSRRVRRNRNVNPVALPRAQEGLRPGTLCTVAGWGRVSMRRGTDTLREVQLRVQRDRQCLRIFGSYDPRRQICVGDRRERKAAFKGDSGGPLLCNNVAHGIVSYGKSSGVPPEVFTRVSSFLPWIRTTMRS
Put plainly: Direct inhibition of human CatG, chromogenic substrate hydrolysis assay. How it is done: The method further comprises inhibition of proteases. […] To each well of a 96-well microplate containing 88 μl of 20 mM tris buffer containing 100 mM NaCl, 2.5 mM CaCl2, 0.1% PEG 8000 and 0.05% tween 80 was added 3 μl of CatG (final concentration of 30 nM), and 5 μl of H2O or potential inhibitor (final concentration of 0-100 μM). Following a 5-min incubation, 3 μl of CatG substrate was added (final concentration 750 μM) and the residual CatG activity was obtained from the initial rate of increase of absorbance at 405 nm. The relative residual activity of CatG at each of the inhibitor concentrations was obtained from the ratio of CatG activity in the presence and absence of the inhibitor. Logistic Equation (1) was used to plot the dose-dependence curve to obtain the IC50 (potency) and efficacy of CatG inhibition. Here, Y is the ratio of residual CatG activity in the presence of inhibitor to that in its absence, YO and YM are the minimum and maximum values of fractional residual CatG activity, respectively, IC50 is the concentration of the inhibitor that results in 50% inhibition of CatG activity and HS is the Hill slope.
To each well of a 96-well microplate containing 88 μl of 20 mM tris buffer containing 100 mM NaCl, 2.5 mM CaCl2, 0.1% PEG 8000 and 0.05% tween 80 was added 3 μl of CatG (final concentration of 30 nM), and 5 μl of H2O or potential inhibitor (final concentration of 0-100 μM). Following a 5-min incubation, 3 μl of CatG substrate was added (final concentration 750 μM) and the residual CatG activity was obtained from the initial rate of increase of absorbance at 405 nm. The relative residual activity of CatG at each of the inhibitor concentrations was obtained from the ratio of CatG activity in the presence and absence of the inhibitor. Logistic Equation (1) was used to plot the dose-dependence curve to obtain the IC50 (potency) and efficacy of CatG inhibition. Here, Y is the ratio of residual CatG activity in the presence of inhibitor to that in its absence, YO and YM are the minimum and maximum values of fractional residual CatG activity, respectively, IC50 is the concentration of the inhibitor that results in 50% inhibition of CatG activity and HS is the Hill slope.

Experiment [2] addresses Human FXIa (Homo sapiens, UniProt P03951). Put plainly: Direct inhibition of FXIa, chromogenic substrate hydrolysis assay. As to conditions: Tris-HCl buffer. How it is done:
Direct inhibitions of thrombin (FIIa), factor VIIa (FVIIa), factor IXa (FIXa), factor Xa (FXa), FXIa, factor XIIa (FXIIa), trypsin and chymotrypsin were evaluated using the corresponding chromogenic substrate hydrolysis assays as previously reported. Briefly, to each well of a 96-well microplate containing 85-185 μl of […] Tris buffer containing 100 mM NaCl, 2.5 mM CaCl2, 0.1% PEG 8000, and 0.05% tween 80 at 25 (thrombin) or 37° C. (FVIIa, FIXa, FXa, FXIa, FXIIa, chymotrypsin, and trypsin) were added 5 μl of enzyme (thrombin, FVIIa, FIXa, FXa, FXIa, FXIIa, chymotrypsin, and trypsin) and 5 μl of the inhibitor. Following an incubation period of 5 min, the appropriate chromogenic substrates (Spectrozyme TH, Spectrozyme FIXa, Spectrozyme FXa, S-2366, Spectrozyme FXIIa and S-2222) were added and the residual enzyme activity was measured from the initial rate of increase in absorbance at 405 nm. Relative residual enzyme activity as a function of the inhibitor concentration was fitted using Logistic Equation (1) to obtain the IC50 (potency), A Y % (efficacy) of enzyme inhibition, and HS (Hill slope). The concentrations of enzymes and substrates in microplate cells were: 6 nM and 50 μM for thrombin; 1.09 nM and 125 μM for FXa; 5 nM and 125 μM for FXIIa; 89 nM and 850 μM for FIXa; 8 nM and 1000 µM for FVIIa (along with 40 nM recombinant tissue factor); 72.5 ng/ml and 80 μM for bovine trypsin; and 500 ng/ml and 240 μM for bovine chymotrypsin.

For experiment [3], the target named is T1, CatG. Description: Michaelis-Menten kinetics of chromogenic substrate (S-7388) hydrolysis by CatG. How it is done: The initial rate of the hydrolysis of the chromogenic substrate by CatG was monitored from the linear increase in absorbance corresponding to less than 10% consumption of substrate at 37° C. in pH 7.4 20 mM Tris buffer containing 100 mM NaCl, 2.5 mM CaCl2, 0.1% PEG 8000 and 0.05% tween 80. The initial rate was measured at various substrate concentrations ([…]) at fixed enzyme concentration (30 nM), and fixed sulfonated compounds concentrations (0, 25, 50, 100, 200, 400, and 800 nM). The data were fitted by the Michaelis-Menten Equation (3) to determine the KM (substrate affinity) and VMAX (maximum reaction velocity).
To understand the mechanistic basis of inhibition, Michaelis-Menten kinetics of S-7388 hydrolysis by CatG was performed in the presence of inhibitor 2 at pH 7.4 and 37° C. […] Table 5 and FIG. 5.

Read-outs that look alike come from different tables or passages of the source.

Chain of Human FXIa (P03951 388-625): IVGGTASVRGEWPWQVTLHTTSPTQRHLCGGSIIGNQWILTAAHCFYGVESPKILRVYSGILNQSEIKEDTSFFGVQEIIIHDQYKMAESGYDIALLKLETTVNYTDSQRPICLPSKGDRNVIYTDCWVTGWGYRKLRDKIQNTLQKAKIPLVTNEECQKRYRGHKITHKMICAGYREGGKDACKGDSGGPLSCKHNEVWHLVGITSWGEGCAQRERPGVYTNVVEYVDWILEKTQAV
Chain of Human FXIa (P03951 19-387 partner): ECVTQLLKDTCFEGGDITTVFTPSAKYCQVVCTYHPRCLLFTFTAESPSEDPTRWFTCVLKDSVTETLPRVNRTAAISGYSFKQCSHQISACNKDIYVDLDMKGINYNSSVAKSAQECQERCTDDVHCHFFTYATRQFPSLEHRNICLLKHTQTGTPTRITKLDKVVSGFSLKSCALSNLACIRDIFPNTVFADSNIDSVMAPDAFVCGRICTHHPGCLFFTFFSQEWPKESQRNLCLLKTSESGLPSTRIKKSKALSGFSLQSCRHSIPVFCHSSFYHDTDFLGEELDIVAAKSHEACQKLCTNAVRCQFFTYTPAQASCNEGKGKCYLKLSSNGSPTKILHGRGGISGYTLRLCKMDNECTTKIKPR

The term IC50 denotes the concentration at which inhibition is half-maximal. By Km is commonly meant the concentration of substrate that gives half-maximal velocity. Consider `O=C(Nc1cc(C(=O)Nc2ccc(S(=O)(=O)O)cc2S(=O)(=O)O)cc(C(=O)Nc2ccc(S(=O)(=O)O)cc2S(=O)(=O)O)c1)Nc1cc(C(=O)Nc2ccc(S(=O)(=O)O)cc2S(=O)(=O)O)cc(C(=O)Nc2ccc(S(=O)(=O)O)cc2S(=O)(=O)O)c1` [Formula II, 4,4′,4″,4′-((5,5′-(carbonylbis(azanediyl))bis(isophthaloyl))tetrakis(azanediyl))tetrakis(benzene-1,3-disulfonic acid)], for which the half-inhibitory concentration (IC50) in experiment [1] (Table 6, read-out: CATG IC50) was 90 nM; in experiment [1] (Tris buffer pH 7.4, 37° C., 100 mM NaCl, read-out: IC50), 90 ± 10 nM; in experiment [2] it was over 500000 nM. In addition, the “HS (Hill slope)” value in experiment [1] (Tris buffer pH 7.4, 37° C.) amounted to 1.5 ± 0.3. Moreover, the “ΔY (efficacy)” value in experiment [1] (Tris buffer pH 7.4, 37° C.) is given as 82.5 ± 7.4%. Besides, the “Decrease of VMAX, absence of inhibitor vs 800 nM” value in experiment [3] (0 vs 800 nM inhibitor) is given as about 3 fold. In addition, the Km in experiment [3] (Formula II 40 nM) was found to be 1200 ± 300 µM; in experiment [3] (Formula II 100 nM) it was 1290 ± 190 µM; in experiment [3] (Formula II 400 nM) it was 1400 ± 220 µM; in experiment [3] (Formula II 800 nM) it was 1320 ± 207 µM. Also, the Vmax in experiment [3] (Formula II 40 nM) is on record as 26.1 ± 2.5 mAU/min; in experiment [3] (Formula II 100 nM), 17.6 ± 1.1 mAU/min; in experiment [3] (Formula II 400 nM) it was 11.4 ± 0.8 mAU/min; in experiment [3] (Formula II 800 nM), 10.6 ± 0.95 mAU/min; in experiment [3] (Formula II 800 nM, listed as inhibitor 2), 10.6±0.95 mAU/min. The “KM for S-7388 in the presence or absence of inhibitor” value in experiment [3] (inhibitor 0-800 nM, pH 7.4, 37° C.) is listed as “essentially unchanged”.
